Molecular target: T1, Trx-rHelja (Helianthus annuus, UniProt A0A059VAE5)
T1 construct: N-terminal thioredoxin, His6 and enterokinase-site tags kept; E. coli Rosetta-gami2 (DE3) pLysS; about 35 kDa fusion (Helja about 20 kDa)
Test: affinity chromatography on D-mannose-agarose, elution with mannose, SDS-PAGE
Type: binding
Settings: 50 mM Tris-HCl pH 7.5, 100 mM NaCl; D-mannose immobilised on agarose; eluted with 200 mM free mannose

T1 sequence (A0A059VAE5 entry or part of it): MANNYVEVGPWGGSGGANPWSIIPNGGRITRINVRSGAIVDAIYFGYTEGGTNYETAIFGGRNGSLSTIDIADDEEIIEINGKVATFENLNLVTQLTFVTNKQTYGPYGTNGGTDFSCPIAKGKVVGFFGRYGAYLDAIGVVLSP

## OC[C@H]1OC(O)[C@@H](O)[C@@H](O)[C@@H]1O (stereo partly shown) [mannose]
  affinity chromatography on D-mannose-agarose, elution with mannose, SDS-PAGE: the recombinant protein was bounded to the matrix and eluted with mannose

From publication PMC5297726, “Anti-Neuroblastoma Properties of a Recombinant Sunflower Lectin” (International Journal of Molecular Sciences, 2017)
